{"source": "patent US20130052172A1", "about": "“METHODS FOR DIAGNOSING AND TREATING CARDIAC DEFECTS” (priority 2011, published 2013)", "key": {"[1]": {"system": "isolated hearts", "experiment": "In vitro global ischemia/reperfusion of isolated perfused hearts, infarct size and recovery of LVDP", "parameters": "species or system rat", "conditions": "for effect of inhibitor alone on cardioprotection: inhibitor perfused prior to ischemia/reperfusion, no vancomycin", "experimental": "(§1) For in vitro ischemia/reperfusion studies, hearts were perfused retrogradely, as described previously in Baker, J. et al. (Am. J. Physiol. Heart Circ. Physiol., 2000), the entirety of which is incorporated herein by reference. Briefly, hearts were perfused with modified Krebs-Henseleit buffer (120 mM NaCl, 25 mM NaHCO3, 4.7 mM KCl, 1.2 mM KH2PO4, 1.20 mM MgSO4, 11 mM glucose, and 1.8 mM CaCl2) bubbled with 95% O2-5% CO2 for a 40-minute stabilization period and subjected to 25 minutes of global no-flow ischemia, followed by 180 minutes of reperfusion. Before use, all perfusion fluids were filtered through cellulose acetate membranes with a pore size of 5.0 μm to remove particulate matter. Hearts were kept in temperature-controlled chambers to maintain myocardial temperature at 37° C. A balloon connected to a pressure transducer was inserted into the left ventricle to monitor cardiac function. For some experiments, hearts were stabilized for 25 minutes and then perfused with vancomycin or a mixture of antibiotics for 15 minutes before ischemia/reperfusion. During the initial 40 minute reperfusion period, recovery of mechanical function was measured as left ventricular developed pressure (LVDP) under steady-state conditions and expressed as a percentage of preischemic LVDP. At the end of the 3 hour reperfusion period, hearts were processed and stained with 2,3,5-triphenyltetrazolium chloride dye for IS determination."}, "[2]": {"system": "Dahl S rats", "experiment": "In vivo regional myocardial ischemia/reperfusion, infarct size (IS/AAR)", "parameters": "species or system rat", "conditions": "vancomycin 15 mg/kg/day for 72 hours, thrombopoietin i.v. 15 minutes prior to ischemia", "excerpt": "(§2) An anesthetized rat model was used for in vivo ischemia/reperfusion studies using the general surgical protocol and determination of infarct size (IS) described in “K(ATP) opener-induced delayed cardioprotection: involvement of sarcolemmal and mitochondrial K(ATP) channels, free radicals and MEK½” (Gross, E. et al., J. Mol. Cell. Cardiol. 35, 985-992, 2003), the entirety of which is incorporated herein by reference. Briefly, following anesthesia, a tracheotomy for artificial ventilation was performed, with the left common carotid artery cannulated for blood pressure and heart rate measurements. A thoracotomy was performed at the fifth intercostal space, the pericardium was excised, and a silk ligature was placed distal to the left atrial appendage that spanned to the sternal portion of the left ventricle, which included the left anterior descending coronary artery. Occlusion of the area described [area at risk (AAR)] was created by placing ends of the ligature through a polypropylene tube and fixing the snare to the epicardial surface with a hemostat. After 30 min, the hemostat was released to reperfuse the AAR. Following 2 h of reperfusion, the ligature was again occluded, and the AAR was determined by patent-blue negative staining. The heart was then excised, cross-sectioned into 4 to 5 slices, and separated into normal zone and AAR. Pieces were incubated in 1% 2,3,5-triphenyltetrazolium chloride to determine IS. The heart was then incubated overnight in 10% formaldehyde, and infarcted tissue was dissected from the AAR. IS was expressed as a percentage of the AAR (IS/AAR). Leptin (0.12 μg/kg) was administered intravenously as a bolus at 24 and 12 h before ischemia. Amino acids were administered intravenously as a bolus at 24 and 12 hours before ischemia or dissolved in the drinking water and given 48 hours before ischemia."}, "[3]": {"system": "rat heart", "conditions": "pharmacologic preconditioning (Baker 2007, 2008); cited from earlier work"}, "[4]": {"system": "rats", "experiment": "Myocardial ischemia/reperfusion by the protocol of example 3 (model not given)", "type": "in vivo, rat", "conditions": "Dahl S rats, single antibiotic in drinking water (60 or 120 mg/kg/day)", "excerpt": "In the following example, methods for assaying myocardial infarction in vitro and in vivo in rats as determined by ischemia/reperfusion studies are described.\nas §2, §1"}, "[5]": {"system": "leptin", "experiment": "Plasma cytokine analysis (leptin)", "type": "in vivo, rat", "conditions": "Dahl S rats fed 15 ml/rat/d for 14 d, with or without leptin", "experimental": "The concentration of cytokines in blood of rats treated with vancomycin was quantified to identify antibiotic-induced changes. […] Blood samples were kept on ice for 30 min and then centrifuged at 1000 g for 10 min at 4° C. to obtain plasma. Plasma samples were then analyzed to determine the concentration of 23 cytokines (Eve Technologies, Calgary, AB, Canada). Antibiotic was administered continuously via drinking water as described in example 1."}}, "note": "“Also recorded” adds a separate entry of the source. Positions of bridges follow the written chain, without caps; N, C: chain ends. Non-standard residues stand in square brackets, D forms with d. Residues, ends and D or L forms follow the SMILES beside them. *: point of attachment. Ileψ(thiazoline)Cys = CC[C@H](C)[C@H](N)C1=N[C@H](C(=O)*)CS1; dOrn = NCCC[C@@H](N)C(=O)O", "data": [{"compound": "N#C/C(=C/c1ccc(O)c(O)c1)C(=O)NCc1ccccc1", "note": "[AG-490]", "values": [{"measurement": "effect on ability of vancomycin to reduce myocardial necrosis and enhance ventricular function", "setting": "[1]; JAK-2 inhibitor 1 μM perfused prior to ischemia/reperfusion, hearts of vancomycin-treated rats", "result": "partially abolished the ability of vancomycin to reduce myocardial necrosis and to enhance ventricular function"}, {"measurement": "effect of inhibitor alone on cardioprotection", "setting": "[1]", "result": "no effect on cardioprotection"}]}, {"compound": "C[S+]([O-])c1ccc(-c2nc(-c3ccncc3)c(-c3ccc(F)cc3)[nH]2)cc1", "note": "(centres unmarked) [SB 203580]", "values": [{"measurement": "effect of inhibitor alone on cardioprotection", "setting": "[1]", "result": "no effect on cardioprotection"}, {"measurement": "effect on ability of vancomycin to reduce myocardial necrosis and enhance ventricular function", "setting": "[1]; p38 MAPK inhibitor 15 μM perfused prior to ischemia/reperfusion", "result": "abolished the ability of vancomycin to reduce myocardial necrosis and to enhance ventricular function"}]}, {"compound": "thrombopoietin: agent of classical pharmacologic preconditioning; human thrombopoietin (Baker 2008)", "values": [{"measurement": "decrease in infarct size", "setting": "[2]", "result": 25, "unit": "%"}, {"measurement": "reduction in IS", "setting": "[3]", "result": 34, "unit": "%"}]}, {"compound": "polymyxin B", "values": [{"measurement": "effect on myocardial infarct size", "setting": "[4]", "result": "did not induce protection"}]}, {"compound": "neomycin", "values": [{"measurement": "effect on myocardial infarct size", "setting": "[4]", "result": "reduce myocardial infarct size"}]}, {"compound": "CC[C@H](C)[C@H](N)C1=N[C@H](C(=O)N[C@@H](CC(C)C)C(=O)N[C@H](CCC(=O)O)C(=O)N[C@H](C(=O)N[C@H]2CCCCNC(=O)[C@H](CC(N)=O)NC(=O)[C@@H](CC(=O)O)NC(=O)[C@H](Cc3cnc[nH]3)NC(=O)[C@@H](Cc3ccccc3)NC(=O)[C@H]([C@@H](C)CC)NC(=O)[C@@H](CCCN)NC2=O)[C@@H](C)CC)CS1", "note": "[bacitracin] ({Ileψ(thiazoline)Cys}-L[dE]IK[dOrn]I[dF]H[dD]N; lactam 4-C)", "values": [{"measurement": "effect on myocardial infarct size", "setting": "[4]", "result": "did not induce protection"}]}, {"compound": "leptin: 16-kDa, 167-aa polypeptide synthesized and secreted into the circulation primarily by white adipocytes", "values": [{"measurement": "effect on IS / myocardial infarction", "setting": "[1]; Dahl S rats fed 15 ml/rat/d for 14 d, with or without leptin 0.12 μg/kg", "result": "no effect on IS"}, {"measurement": "effect of leptin in the absence of vancomycin pretreatment", "setting": "[1]; leptin 0.12 μg/kg i.v. at 24 and 12 h before ischemia/reperfusion", "result": "had no effect"}, {"measurement": "effect on probiotic juice-induced cardioprotection", "setting": "[1]; leptin 0.12 μg/kg i.v. at 24 and 12 h before ischemia/reperfusion, probiotic juice-fed rats", "result": "abolished probiotic juice-induced cardioprotection; also recorded: reversed"}, {"measurement": "effect on decrease in IS and increase in recovery of LVDP conferred by vancomycin", "setting": "[1]; leptin 0.12 μg/kg i.v. at 24 and 12 h before ischemia/reperfusion, vancomycin-treated rats", "result": "abolished the decrease in IS and increase in recovery of LVDP conferred by vancomycin treatment; also recorded: reversed cardioprotection by vancomycin"}, {"measurement": "effect on leptin levels in blood", "setting": "[5]", "result": "no effect on leptin levels"}]}, {"compound": "COc1ccc(Cl)cc1C(=O)NCCc1ccc(S(=O)(=O)NC(=O)NC2CCCCC2)cc1", "note": "[Glibenclamide, glibenclamide]", "values": [{"measurement": "effect on ability of vancomycin to reduce myocardial necrosis and enhance ventricular function", "setting": "[1]; KATP channel blocker 3 μM perfused prior to ischemia/reperfusion", "result": "abolished the ability of vancomycin to reduce myocardial necrosis and to enhance ventricular function"}, {"measurement": "effect of inhibitor alone on cardioprotection", "setting": "[1]", "result": "no effect on cardioprotection"}]}, {"compound": "erythropoietin: pharmacologic preconditioning agent, cited from Baker 2007 (darbepoetin alfa paper)", "values": [{"measurement": "reduction in IS", "setting": "[3]", "result": 39, "unit": "%"}]}, {"compound": "COc1cccc(-c2cc(=O)c3ccccc3o2)c1N", "note": "[PD98059]", "values": [{"measurement": "effect of inhibitor alone on cardioprotection", "setting": "[1]", "result": "no effect on cardioprotection"}, {"measurement": "effect on ability of vancomycin to reduce myocardial necrosis and enhance ventricular function", "setting": "[1]; p42/44 MAPK inhibitor 10 μM perfused prior to ischemia/reperfusion", "result": "abrogated the ability of vancomycin to reduce myocardial necrosis and to enhance ventricular function"}]}, {"compound": "[H]/N=C(/N)N[C@H]1[C@H](O)[C@@H](O)[C@H](O[C@@H]2O[C@@H](C)[C@](O)(C=O)[C@H]2O[C@@H]2O[C@@H](CO)[C@H](O)[C@@H](O)[C@@H]2NC)[C@@H](N/C(N)=N\\[H])[C@@H]1O", "note": "[streptomycin]", "values": [{"measurement": "effect on myocardial infarct size", "setting": "[4]", "result": "reduce myocardial infarct size"}]}]}
